Test results taken from patent publication US9695155B2, “Herbicidal substituted pyrimidinyloxy benzene compounds” (E. I. DU PONT DE NEMOURS AND COMPANY, priority 2013, dated 2017).

How the values were obtained:
[1] = test system: wheat; experiment: Test A preemergence; format: in vivo, Triticum aestivum
From the text: (§1) Seeds of plant species selected from barnyardgrass (Echinochloa crus-galli), kochia (Kochia scoparia), ragweed (common ragweed, Ambrosia elatior), Italian ryegrass (Lolium multiflorum), large (Lg) crabgrass (Digitaria sanguinalis), giant foxtail (Setaria faberii), morningglory (Ipomoea spp.), pigweed (Amaranthus retroflexus), velvetleaf (Abutilon theophrasti), wheat (Triticum aestivum), and corn (Zea mays) were planted into a blend of loam soil and sand and treated preemergence with a directed soil spray using test chemicals formulated in a non-phytotoxic solvent mixture which included a surfactant.
(§2) At the same time, plants selected from these crop and weed species and also blackgrass (Alopecurus myosuroides), and galium (catchweed bedstraw, Galium aparine) were planted in pots containing the same blend of loam soil and sand and treated with postemergence applications of test chemicals formulated in the same manner. Plants ranged in height from 2 to 10 cm and were in the one- to two-leaf stage for the postemergence treatment. Treated plants and untreated controls were maintained in a greenhouse for approximately 10 days, after which time all treated plants were compared to untreated controls and visually evaluated for injury. Plant response ratings, summarized in Table A, are based on a 0 to 100 scale where 0 is no effect and 100 is complete control. A dash (-) response means no test result.

[2] = test system: large (Lg) crabgrass; experiment: Test A postemergence; format: in vivo, Digitaria sanguinalis
From the text: as §1, §2

[3] = test system: pigweed; experiment: Test A preemergence; format: in vivo, Amaranthus retroflexus
From the text: as §1, §2

[4] = test system: barnyardgrass; experiment: Test A preemergence; format: in vivo, Echinochloa crus-galli
From the text: as §1, §2

[5] = test system: wheat; experiment: Test A postemergence; format: in vivo, Triticum aestivum
From the text: as §1, §2

[6] = test system: velvetleaf; experiment: Test A postemergence; format: in vivo, Abutilon theophrasti
From the text: as §1, §2

[7] = test system: pigweed; experiment: Test A postemergence; format: in vivo, Amaranthus retroflexus
From the text: as §1, §2

[8] = test system: giant foxtail; experiment: Test A preemergence; format: in vivo, Setaria faberii
From the text: as §1, §2

[9] = test system: barnyardgrass; experiment: Test A postemergence; format: in vivo, Echinochloa crus-galli
From the text: as §1, §2

[10] = test system: giant foxtail; experiment: Test A postemergence; format: in vivo, Setaria faberii
From the text: as §1, §2

[11] = test system: morningglory; experiment: Test A postemergence; format: in vivo, Ipomoea spp.
From the text: as §1, §2

[12] = test system: velvetleaf; experiment: Test A preemergence; format: in vivo, Abutilon theophrasti
From the text: as §1, §2

[13] = test system: large (Lg) crabgrass; experiment: Test A preemergence; format: in vivo, Digitaria sanguinalis
From the text: as §1, §2

[14] = test system: morningglory; experiment: Test A preemergence; format: in vivo, Ipomoea spp.
From the text: as §1, §2

[15] = test system: corn; experiment: Test A preemergence; format: in vivo, Zea mays
From the text: as §1, §2

[16] = test system: corn; experiment: Test A postemergence; format: in vivo, Zea mays
From the text: as §1, §2

[17] = 1000 g ai/ha, 0 to 100 scale, 0 no effect, 100 complete control, approx. 10 days
[18] = 1000 g ai/ha, 0 to 100 scale, 0 no effect, 100 complete control
[19] = 500 g ai/ha, 0 to 100 scale where 0 is no effect and 100 is complete control

SMILES	Wheat plant response rating [1, 17]	Plant response rating, Crabgrass, Large [2, 18]	Pigweed plant response rating [3, 17]	Plant response rating, Wheat [5, 18]	Plant response rating, Velvetleaf [6, 18]	Plant response rating, Pigweed [7, 18]	Foxtail, Giant plant response rating [8, 17]	Plant response rating, Barnyardgrass [9, 18]	Plant response rating, Foxtail, Giant [10, 18]	Plant response rating, Morningglory [11, 18]	Velvetleaf plant response rating [12, 17]	Morningglory plant response rating [14, 17]	Plant response rating, Corn [16, 18]	Barnyardgrass plant response rating [4, 17]	Crabgrass, Large plant response rating [13, 17]	Corn plant response rating [15, 17]	also measured
Clc1cnc(Oc2ccccc2-n2cccn2)nc1 [Compound 12, 5-chloro-2-[2-(1H-pyrazol-1-yl)phenoxy]pyrimidine]																	plant injury at 1000 g/ha ([1]; Triticum aestivum, pre-emergence, 240 h, 1000 g ai/ha, 0 to 100 scale, 0 no effect, 100 complete control, approx. 10 days, read-out: Wheat plant response rating): 20%; pest or weed control at 1000 g/ha ([2]; Digitaria sanguinalis, post-emergence, 240 h, 1000 g ai/ha, 0 to 100 scale, 0 no effect, 100 complete control, read-out: Plant response rating Crabgrass, Large): 80%; pest or weed control at 1000 g/ha ([3]; Amaranthus retroflexus, pre-emergence, 240 h, 1000 g ai/ha, 0 to 100 scale, 0 no effect, 100 complete control, approx. 10 days, read-out: Pigweed plant response rating): 100%; pest or weed control at 1000 g/ha ([4]; Echinochloa crus-galli, pre-emergence, 240 h, 1000 g ai/ha, 0 to 100 scale, 0 no effect, 100 complete control, read-out: Plant response rating, Barnyardgrass): 100%; plant injury at 1000 g/ha ([5]; Triticum aestivum, post-emergence, 240 h, 1000 g ai/ha, 0 to 100 scale, 0 no effect, 100 complete control, read-out: Plant response rating Wheat): 20%; pest or weed control at 1000 g/ha ([6]; Abutilon theophrasti, post-emergence, 240 h, 1000 g ai/ha, 0 to 100 scale, 0 no effect, 100 complete control, read-out: Plant response rating Velvetleaf): 100%; pest or weed control at 1000 g/ha ([7]; Amaranthus retroflexus, post-emergence, 240 h, 1000 g ai/ha, 0 to 100 scale, 0 no effect, 100 complete control, read-out: Plant response rating Pigweed): 100%; pest or weed control at 1000 g/ha ([8]; Setaria faberi, pre-emergence, 240 h, 1000 g ai/ha, 0 to 100 scale, 0 no effect, 100 complete control, approx. 10 days, read-out: Foxtail, Giant plant response rating): 100%; pest or weed control at 1000 g/ha ([9]; Echinochloa crus-galli, post-emergence, 240 h, 1000 g ai/ha, 0 to 100 scale, 0 no effect, 100 complete control, read-out: Plant response rating Barnyardgrass): 90%; pest or weed control at 1000 g/ha ([10]; Setaria faberi, post-emergence, 240 h, 1000 g ai/ha, 0 to 100 scale, 0 no effect, 100 complete control, read-out: Plant response rating Foxtail, Giant): 80%; pest or weed control at 1000 g/ha ([11]; Ipomoea, post-emergence, 240 h, 1000 g ai/ha, 0 to 100 scale, 0 no effect, 100 complete control, read-out: Plant response rating Morningglory): 90%; pest or weed control at 1000 g/ha ([12]; Abutilon theophrasti, pre-emergence, 240 h, 1000 g ai/ha, 0 to 100 scale, 0 no effect, 100 complete control, approx. 10 days, read-out: Velvetleaf plant response rating): 100%; pest or weed control at 1000 g/ha ([13]; Digitaria sanguinalis, pre-emergence, 240 h, 1000 g ai/ha, 0 to 100 scale, 0 no effect, 100 complete control, read-out: Plant response rating, Crabgrass, Large): 100%; pest or weed control at 1000 g/ha ([14]; Ipomoea, pre-emergence, 240 h, 1000 g ai/ha, 0 to 100 scale, 0 no effect, 100 complete control, approx. 10 days, read-out: Morningglory plant response rating): 0%; Corn plant response rating (crop injury, 0 = no effect, 100 = complete kill) at 1000 g/ha ([15]; Zea mays, pre-emergence, 240 h, 1000 g ai/ha, 0 to 100 scale, 0 no effect, 100 complete control): 0%; plant injury at 1000 g/ha ([16]; Zea mays, post-emergence, 240 h, 1000 g ai/ha, 0 to 100 scale, 0 no effect, 100 complete control, read-out: Plant response rating Corn): 30%
CC(=O)Oc1cccc(Oc2ncc(Cl)cn2)c1-n1cc(Br)cn1 [Compound 67]	0	10	100	0	70	100	10	20	10	10	10	0	10				Plant response rating, Barnyardgrass [4, 18]: 0; Plant response rating, Crabgrass, Large [13, 18]: 20; Plant response rating, Corn [15, 18]: 0
N#CCOc1cccc(Oc2ncc(Cl)cn2)c1-n1cc(Br)cn1 [Compound 70]	0	60	90	0	70	70	60	80	60	20	70	10	10				Plant response rating, Barnyardgrass [4, 18]: 50; Plant response rating, Crabgrass, Large [13, 18]: 90; Plant response rating, Corn [15, 18]: 0
Fc1cccc(Oc2ncc(Cl)cn2)c1-n1cccn1 [Compound 176]																	Wheat plant response rating [1, 19]: 0; Plant response rating, Crabgrass, Large [2, 19]: 40; Pigweed plant response rating [3, 19]: 100; Barnyardgrass plant response rating [4, 19]: 60; Plant response rating, Wheat [5, 19]: 10; Plant response rating, Velvetleaf [6, 19]: 90; Plant response rating, Pigweed [7, 19]: 100; Foxtail, Giant plant response rating [8, 19]: 100; Plant response rating, Barnyardgrass [9, 19]: 40; Plant response rating, Foxtail, Giant [10, 19]: 50; Plant response rating, Morningglory [11, 19]: 80; Velvetleaf plant response rating [12, 19]: 90; Crabgrass, Large plant response rating [13, 19]: 100; Morningglory plant response rating [14, 19]: 0; Corn plant response rating [15, 19]: 0; Plant response rating, Corn [16, 19]: 20
COc1ccc(I)c(-n2cc(Br)cn2)c1Oc1ncc(Cl)cn1 [Compound 207]	0	40	0	0	30	70	50	10	60	30	30	0	0	0	50	0	
Oc1cccc(Oc2ncc(Cl)cn2)c1-n1cc(Cl)cn1 [Compound 229]	0	0	100	0	0	60	0	0	0	0	0	0	0	0	10	0	
Fc1cc(F)cc(-c2cn(-c3c(Br)cccc3Oc3ncc(Cl)cn3)nn2)c1 [Compound 303]	0	20	80	0	70	90	50	20	20	30	0	0	10	0	60	0	
